For one data set, the system named is FIBCD1-KO U87 cell line. Conditions: 500 nM, FIBCD1-KO U87 cells, crystal violet. The text has this:
(§1) Crystal violet staining is a cell viability test used to determine if a drug or molecule is killing cells based on the difference in cell number from the untreated control. U87 cells are an adherent cell line if they are alive and healthy, they attach securely to the bottom of the petri dish. Herein we passaged U87 cells into a 96-well plate and made quadruplets for each concentration of the drug we planned to use. After staining the cells that remained after treatment with both the drug and the EPP6-GEM conjugate, the cells were then photographed with a cell phone and compared to the control wells (FIGS. 12A-13C).

The test system of data set [1] is U87 cells. Conditions: 500 nM, crystal violet.
Excerpt: as §1

A further data set concerns U87. In words: Confocal microscopy for internalization of EPP6-GEM. The format is cell-based, human. Conditions: 500 nM, U87 cells. How it is done:
After purification of this conjugate, EPP6-GEM was dissolved in DMSO and diluted to 500 nM in full media (DMEM) and administered to the immortalized glioblastoma cell line U87. These cells were monitored using Confocal Microscopy for internalization of the conjugate. FIGS. 11A-11C show three images of U87 cells with different combinations of dyes internalized. […] EPP6-GEM has been outfitted with a Rhodamine B dye. […] Cell viability experiments were carried out to determine if the conjugate can kill cells at a similar rate to the free drug or at an improved rate.

The test system of data set [2] is U87 cells. In words: RB-EPP6 uptake after caveolin CRISPR knockout. To be noted: data not shown. The format is cell-based, human. How it is done: (§2) Plasmid transfection assays. 300 k U87 cells were seeded in the 35×10 mm dish for overnight culture. Plasmids (caveolin, 75 ng; clathrin, 100 ng; rab5, 100 ng; rab7a, 10 ng; caveolin-1 CRISPR/Cas9 KO, 3 μg; FIBCD1 CRISPR/Cas9 KO, 3 ug; Control CRISPR, 3 ug) were diluted with Plasmid Transfection Medium (sc-108062) to 50 μl. UltraCruz Transfection Reagent (Santa Cruz Biotechnology) was also diluted with Plasmid Transfection Medium to 50 μl. Plasmids and transfection reagent were mixed well and kept at room temperature for 20 min. Replace the cells with PS free medium and add the mixture to the cells, culture for another 24 h.

For data set [3], the system named is U87 cells. In words: Temperature control comparison experiment (RB-EPP6 uptake at 37° C. and 4° C.). It counts as cell-based, human. Conditions: 500 nM, 1 h. How it is done:
(§3) Confocal Imaging experiments. To image the cells, a Zeiss 880 inverted confocal laser scanning microscope (Carl Zeiss, Germany) was used. Image acquisition and analyses were carried out using the manufacturer's software (ZEN, Carl Zeiss). Quantification of fluorescence intensity in single cells was performed using Fiji software.
Temperature control comparison experiment. U87 cells were kept in the cold room for half an hour before incubated with RB-EPP 6. After that, cells were incubated with RB-EPP 6 at 500 nM at 4° C. Cells in the control group were incubated at 37° C. After 1 h, cells were wash with fresh medium once respectively before confocal imaging.

The nature of a further data set: Lipid binding assay. To be noted: liposomes, RB-EPP6 1 nM to 10 μM. How it is done: Lipid binding assay. 95% egg PC, 5% nitrobenzoxadiazole (NBD) were added to 1% cholesterol, PE, PG, ganglioside, SM and PA to make liposomes individually. RB-EPP 6 was diluted with HEPES buffer to different concentrations, ranging from 1 nM to 10 μM. For each lipid type, 400 μl liposomes of 50 μg/ml were added to 400 μl of each RB-EPP 6 concentration. The mixture was incubated at room temperature for 15 min. 80 μl of each condition was collected to measure the fluorescence intensity of NBD suing the Synergy H1 microplate reader.

The conditions of data set [4]: MDCK, MDCK monolayer, trans-well, three hours of incubation, 10 μM.
Procedure: (§4) MDCK transwell assay. 200 k MDCK cells were seeded in 200 μl in complete growth media to the apical side of a transwell insert (12-well 8 μm pore size Transwell-65 mm). In addition, 1 ml complete growth media is added to the basolateral chamber. […] Incubate the plate for 2-3 days at 37° C. with 5% CO2. The electrical resistance of MDCK transwell inserts was measured using EVOM Epithelial Voltohmmeter to measure the integrity of tight junctions the following two days. On day 3, serum free media was used to wash both the apical (200 μl) and basolateral (1 ml) wells three times. Cells were kept in a 37° C./5% CO2 cell incubator equilibrating for 15 min.
(§5) The assay was carried out in both apical to basolateral and basolateral to apical direction. […] For the assay with apical to basolateral direction, the apical chamber was replaced with 200 μl testing compounds. For the assay with basolateral to apical direction, the basolateral chamber was replaced with 1 ml testing compounds. Both plates were incubated in the cell culture incubator for 3 h. After that, 80 μl of the samples were collected from each chamber for RB fluorescence intensity reading using a Synergy H1 microplate reader.
The nature of data set [5]: Octanol-water partition assay. The format is physicochemical. How it is done: Octanol-water partition assay. For each RB-EPP, pre-mix 250 μl of octanol with 250 μl of water in a 1.5 ml centrifuge tube. 2 μl of RB-EPP was added to the solution at the concentration of 500 μM. After vortex the mixture, centrifuge at the highest speed for 10 min to separate the octanol and water phases. Samples were collected from both phases and quantified by the Analytical HPLC separately.

The subject of data set [6] is U87 cells. In words: Intracellular trafficking of EPP6 conjugates (endosome markers, organelle trackers, time series, EB staining). It counts as cell-based, human. How it is done: Time series experiment. U87 Cells were incubated with RB-EPP 6 at 500 nM for 1 h. After wash with fresh medium once, the cells were kept in the 5% CO2 incubator at 37° C. for different time durations (1 h, 2 h, 6 h and 24 h) before confocal imaging.
Organelle tracker colocalization experiment. Stock solution of trackers for mitochondria, lysosome and ER were diluted with cell culture medium into 100 nM, 500 nM and 4 μM respectively. RB-EPP 6 was added into each working solution at 500 nM. U87 cells were incubated with the both trackers and RB-EPP 6 for 1 h and then washed once before confocal imaging.
as §2
Ethidium bromide (EB) staining. U87 cells were incubated with 2 μg/ml EB with or without the conjugation of EPP6 for an hour, 3 hours and 6 hours respectively. After 1 h and the cells were washed with fresh phenol-free media once before confocal imaging.
Statistical analysis. Pearson's correlation coefficient was used to calculate correlation between RB and tracker channels in the organelle tracker experiment. Graph generation and statistical analyses were performed using Fiji software.

Data set [7] has as its system U87 cells. In words: Colocalization of RB-EPP6 with mEmerald-caveolin and mEmerald-clathrin. To be noted: transfected U87 cells, confocal. The format is cell-based, human. How it is done: as §3, §2
In another data set the test system is MDCK cells. To be noted: MDCK monolayer, trans-well, three hours.
The subject of data set [8] is U87 cells. In words: Confocal imaging of Dye-EPP uptake in U87 cells. The format is cell-based, human. Conditions: RB-tagged EPPs, U87 cells, confocal imaging, ranking among EPP1-7. How it is done:
as §3
Dye-EPP incubation. For general incubation, 300 k U87 cells were seeded in full medium containing 10% FBS and 1% PS in a 35×10 mm petri dish. The cells were incubated overnight in full medium. Stock solution of Dye-EPPs were made in DMSO to reach a concentration of 500 μM. Fresh cell culture medium was used to dilute the stock solution to 500 nM and replace the old medium on day 2. Cells were incubated with RB-EPPs for different time periods, followed by a one-time wash with phenol-free fresh culture medium before measurements.
Concentration gradient experiment. U87 Cells were incubated with RB-EPP 6 at different concentrations (20 nM, 200 nM, 2 μM, 20 μM, 50 μM and 100 μM). After wash with fresh medium once cells were examined by confocal imaging.

Entries after “also recorded” stand apart in the source; their conditions may differ. Starred links: 1 amine or outer side, 2 acyl side, 3 side chain; linkers in the order of their positions; H or OH if unused. Positions of bridges follow the written chain, without caps; N, C: chain ends. Non-standard residues stand in square brackets, D forms with d. Residues, ends and D or L forms follow the SMILES beside them. Triazole bridges read from a SMILES are 1,4-linked. ξ: configuration not given here. *: point of attachment. RhodamineB = CCN(CC)c1ccc2c(-c3ccccc3C(=O)*)c3ccc(=[N+](CC)CC)cc-3oc2c1; X1 = Nc1ccn([C@@H]2O[C@H](COC(=O)CCC(=O)*)[C@@H](O)C2(F)F)c(=O)n1; Lys(N3) = [N-]=[N+]=NCCCC[C@H](N)C(=O)O; ξLys(N3) = [N-]=[N+]=NCCCCC(N)C(=O)O; NMeGABA = CN(CCCC(=O)[*:2])[*:1]; dPra = C#CC[C@@H](N)C(=O)O; Pra = C#CC[C@H](N)C(=O)O

Procedure for MDCK cells: as §4, §5

As to `CCN(CC)c1ccc2c(-c3ccccc3C(=O)N(C)CCCC(=O)N[C@@H](CCCCNC(=O)CCC(=O)OC[C@H]3O[C@@H](n4ccc(N)nc4=O)C(F)(F)[C@@H]3O)C(=O)N[C@@H]3Cc4cn(nn4)CCCCC(C(N)=O)NC(=O)[C@H](CO)NC(=O)[C@H](Cc4ccc(O)cc4)NC(=O)[C@H](Cc4ccc(O)cc4)NC(=O)[C@H](CO)NC(=O)[C@H](Cc4ccc(O)cc4)NC3=O)c3ccc(=[N+](CC)CC)cc-3oc2c1` (some centres unmarked) [EPP6-GEM] (RhodamineB-[NMeGABA]K(X1)[dPra]YSYYS[ξLys(N3)]-NH2; triazole 3-9), the “cell killing compared with free drug” value with FIBCD1-KO U87 cell line is on record as “cannot perform significantly better than the free drug”; with U87 cells [1] it was “can kill the cells more effectively than the free drug”. For the same compound, the “internalization (Rhodamine B signal)” value in the data set on U87 is “some internalization is occurring”.

With `CCN(CC)c1ccc2c(-c3ccccc3C(=O)N(C)CCCC(=O)N[C@H]3Cc4cn(nn4)CCCC[C@@H](C(N)=O)NC(=O)[C@H](CO)NC(=O)[C@H](Cc4ccc(O)cc4)NC(=O)[C@H](Cc4ccc(O)cc4)NC(=O)[C@H](CO)NC(=O)[C@H](Cc4ccc(O)cc4)NC3=O)c3ccc(=[N+](CC)CC)cc-3oc2c1` [RB-EPP6, RB-cy(YSYYS)] (RhodamineB-[NMeGABA][Pra]YSYYS[Lys(N3)]-NH2; triazole 2-8; N-terminus and C-terminus assumed), the “uptake after CRISPR caveolin” value in the data set with U87 cells [2] is listed as “decreased”. Besides, the “uptake at low temperature” value in the data set on U87 cells [3] was “no RB-EPP6 uptake; also recorded: no fluorescence signal in the cells”. The “interaction with lipid components” value in the data set “Lipid binding assay” is “no appreciable interaction; also recorded: no significant interaction”. Also, in data set [4], the Papp was 5.25 ×10⁻⁶ cm/s. In the data set with U87, the “internalization (Rhodamine B signal)” value was “much higher signals”. The “hydrophobicity (octanol partitioning)” value in data set [5] is given as “hydrophilic”. Also, in the data set with U87 cells [6] (EGFP-Rab5, after 15-min), the “localization in early endosomes (Rab5)” value was “appeared in distinct Rab5-coated vesicles”. Moreover, in the data set with U87 cells [6] (MitoTracker, ERTracker), the “trafficking into mitochondria or endoplasmic reticulum” value was “did not traffic into the mitochondria or the endoplasmic reticulum”. Further, the “localization in lysosomes (LysoTracker)” value with U87 cells [6] (after 3 hours) is recorded as “some RB-EPP6 signals appeared in lysosomes”. Besides, the “retention in Rab7a+ vesicles” value in the data set with U87 cells [6] (after 4 hours) is given as “a significant amount of RB-EPP6 remained inside Rab7a+vesicles”. Further, the remaining intracellular signal entry in the data set with U87 cells [6] (after 24 hours) is reported as “some signals remained”. The “endosomal escape to cytosol” value in the data set on U87 cells [6] (imaging) was “could escape from the endosomes and enter the cytosol”. Moreover, the “time to traffic into late endosomes” value with U87 cells [6] (mEmerald-Rab7a) is no more than 30 min. Moreover, in the data set on U87 cells [7], the “colocalization with mEmerald-caveolin” value is “significantly overlapped” and the “colocalization with mEmerald-clathrin” value is reported as “no overlap”. The “Papp relative to RB-TAT” value in the data set with MDCK cells is recorded as “more than twice that of RB-TAT”. Also, in the data set with U87 cells [8], the “ability to enter the cells (intracellular fluorescence)” value was “best performing”.
